Tests used:
Assay in all cases: drug activity profiling cytotoxicity
Type in all cases: cell-based
DU145 = conditions: Homo sapiens, DU-145; DU145 cell line, Prostate; read-out: Aza-T-dCyd IC50
Outline: (§1)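 Screening covered 200 lines; each was tested for Aza-T-dCyd-induced cytotoxicity.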

OE21 = OE21 cell line, Head and Neck; read-out: Aza-T-dCyd IC50
Outline: as §1

T47D = conditions: Homo sapiens; T47D cell line, Breast; read-out: Aza-T-dCyd IC50
Outline: as §1

Hs 766T = conditions: Hs766T; Hs 766T cell line, Pancreas; read-out: Aza-T-dCyd IC50
Outline: as §1

Hs 936.T(C1) = Hs 936.T(C1) cell line, Skin (Melanoma); read-out: Aza-T-dCyd IC50
Outline: as §1

U-118 MG = conditions: Homo sapiens; U-118 MG cell line, CNS (Glioma); read-out: Aza-T-dCyd IC50
Outline: as §1

SCaBER = conditions: Homo sapiens; SCaBER cell line, Bladder; read-out: Aza-T-dCyd IC50
Outline: as §1

A427 = conditions: Homo sapiens, A-427; A427 cell line, Lung (NSCLC); read-out: Aza-T-dCyd IC50
Outline: as §1

DK-MG = DK-MG cell line, CNS (Glioma); read-out: Aza-T-dCyd IC50
Outline: as §1

Raji = conditions: Homo sapiens; Raji cell line, Burkitt's lymphoma; read-out: Aza-T-dCyd IC50
Outline: as §1

KHOS-240S = KHOS-240S cell line, Bone (Osteosarcoma); read-out: Aza-T-dCyd IC50
Outline: as §1

OE19 = conditions: Homo sapiens; OE19 cell line, Head and Neck; read-out: Aza-T-dCyd IC50
Outline: as §1

BFTC-905 = conditions: Homo sapiens; BFTC-905 cell line, Bladder; read-out: Aza-T-dCyd IC50
Outline: as §1

Calu6 = conditions: Homo sapiens, Calu-6; Calu6 cell line, Lung (NSCLC); read-out: Aza-T-dCyd IC50
Outline: as §1

IM-9 = conditions: Homo sapiens; IM-9 cell line, B-cell lymphoma; read-out: Aza-T-dCyd IC50
Outline: as §1

ZR-75-1 = conditions: Homo sapiens; ZR-75-1 cell line, Breast; read-out: Aza-T-dCyd IC50
Outline: as §1

## Nc1ncn([C@H]2CC(O)[C@@H](CO)S2)c(=O)n1 (stereo partly shown) [Aza-T-dCyd, 4′-thio-5-aza-2′-deoxycytidine]
DU145
  IC50: 432 nM
OE21
  IC50: 152 nM
T47D
  IC50: > 10000 nM
Hs 766T
  IC50: 9400 nM
Hs 936.T(C1)
  IC50: 398 nM
U-118 MG
  IC50: > 10000 nM
SCaBER
  IC50: 187 nM
A427
  IC50: 77.5 nM
DK-MG
  IC50: > 10000 nM
Raji
  IC50: 75.2 nM
KHOS-240S
  IC50: 254 nM
OE19
  IC50: > 10000 nM
BFTC-905
  IC50: 119 nM
Calu6
  IC50: 289 nM
IM-9
  IC50: 1050 nM
ZR-75-1
  IC50: > 10000 nM
